The values that follow come from US20100234459A1, “MEDICALL USE OF 3-(2,2,2,-TRIMETHYLYHDRAZINIUM) PROPIONATE HDROGEN FUMARATE AND DIHYDROGEN PHOSEPHATE” (JSC GRINDEKS, priority 2007, published 2010).

In the experiment the test system is rabbit aorta. Nature of the experiment: Anti-atherosclerotic experiment: cholesterol-fed rabbits, aorta stained with Oil red O. In kind it is in vivo, Chinchilla rabbits. Particulars: 1% cholesterol diet, 15 weeks, in drinking water; dihydrogen phosphate 165 mg/kg, hydrogen fumarate 174 mg/kg; compared with control and Meldonium dihydrate (124 mg/kg) groups. Here is the method: Pharmacological experiment was carried out to examine the anti-atherosclerotic effect of Meldonium dihydrogen phosphate or Meldonium hydrogen fumarate in the aorta.
The experiments with Meldonium salt such as Meldonium dihydrogen phosphate or Meldonium hydrogen fumarate, were performed in 38 Chinchilla rabbits weighing 2.5-3.0 kg. The rabbits were randomly divided into 4 groups: Control (n=11), Meldonium dihydrate group (n=9) and Meldonium dihydrogen phosphate group (n=9) and Meldonium hydrogen fumarate group (n=9).
Experimental atherosclerosis, i.e. serum hyperlipidaemia and the atherosclerotic manifestations in the aorta, was induced by administering 1% cholesterol by weight together with standard diet.
The rabbits were fed with standard diet with 1% cholesterol dissolved in the sunflower seed oil (4% from the total amount of food). The diet was enriched with cholesterol as follows: 10 kg standard food for rabbits was heated to 60° C. and was mixed with 100 g warm cholesterol dissolved in 400 ml sunflower seed oil. The rabbits received 200 g of this food per day.
The experimental groups were given Meldonium dihydrate, Meldonium dihydrogen phosphate and Meldonium hydrogen fumarate, in a dose 124 mg/kg, 165 mg/kg and 174 mg/kg. The preparations were added to drinking water.
After 15 weeks the rabbits were sacrificed. Heart, aorta and liver were collected for examination. […]

Regarding `C[N+](C)(C)NCCC(=O)O.O=P([O-])(O)O` [Meldonium dihydrogen phosphate], the “reduction of the area of atherosclerotic plaque in rabbit aorta” value is reported as above 2 fold.

Take `C[N+](C)(C)NCCC(=O)O.O=C([O-])C=CC(=O)O` [Meldonium hydrogen fumarate]: the “reduction of the area of atherosclerotic plaque in rabbit aorta” value was above 2 fold.
